The assay deals with U87MG cells. The assay can be described thus: Proliferation assay (MTT-based) on U87MG tumour cells. The settings on record: Homo sapiens, U-87 MG, 96 h, 4 days of incubation, negative log value of the IC50-value, read-out: cell proliferation pIC50 (converted). As to the method:
U87MG cells are human glioblastoma cells with wild type p53. In this cell line MDM2 tightly controls p53 expression.
Cellular activity of the compounds of formula (I) was determined on U87MG tumour cells using a colorimetric assay for cell toxicity or survival (see example C.2).
All compounds tested were dissolved in DMSO and further dilutions were made in culture medium. Final DMSO concentrations never exceeded 0.1% (v/v) in cell proliferation assays. Controls contained U87MG cells and DMSO without compound and blanks contained DMSO but no cells.
U87MG cells were seeded in 96-well cell culture plates at 3000 cells/well/100 μl. 24 hours later, medium was changed and compound and/or solvent were added to a final volume of 200 μl. Following 4 days of incubation, medium was replaced by 200 μl fresh medium and cell growth was assessed using a MTT-based assay. Therefore, 25 μl of the MTT solution (0.5% MTT research grade from Serva in phosphate-buffered saline) was added to each well and the cells were further incubated for 2 hours at 37° C. The medium was then carefully aspirated and the blue MTT-formazan product was dissolved by adding to each well 25 μl 0.1 M glycin and 100 μl DMSO. The plates were shaken for another 10 min on a micro plate shaker before reading absorbance at 540 nm by a Biorad micro plate reader.
Within an experiment, the results for each experimental condition are the mean of 3 replicate wells. For initial screening purposes, compounds were tested at a single fixed concentration of 10^−5 M. For active compounds, the experiments were repeated to establish full concentration-response curves. For each experiment, controls (containing no drug) and a blank incubation (containing no cells or drugs) were run in parallel. The blank value was subtracted from all control and sample values. For each sample, the mean value for cell growth (in absorbance units) was expressed as a percentage of the mean value for cell growth of the control. When appropriate, IC50-values (concentration of the drug, needed to reduce cell growth to 50% of the control) were computed using probit analysis for graded data (Finney, D. J., Probit Analyses, 2nd Ed. Chapter 10, Graded Responses, Cambridge University Press, Cambridge 1962). Herein the effects of test compounds are expressed as pIC50 (the negative log value of the IC50-value) (see table F-2).

Each structure is given as a SMILES string. Where only a bound is given, the exact number is not on record here.

In the case of `c1ccc2c(CCCNCc3ccc(Nc4ccncc4)cc3)c[nH]c2c1` [Compound 72], the IC50 is 2000 nM.

Turning to `CC(NCCc1ccccc1)c1cc(Nc2ccc(NCCc3c[nH]c4ccccc34)cc2)ccn1` (stereo not drawn) [Compound 145], the IC50 was 2510 nM.

Consider `CN(c1ccncc1)c1ccc(NCCc2c[nH]c3ccccc23)cc1` [Compound 83], for which the IC50 was 3160 nM.

Turning to `OCc1cc(Nc2ccc(NCCc3c[nH]c4ccccc34)cc2)cc(CO)n1` [Compound 135], the IC50 is 1000 nM.

As to `Cc1ccc2[nH]cc(CCNc3ccc(Nc4ccncc4)cc3)c2c1` [Compound 185], the IC50 was 2000 nM.

Regarding `CC(O)c1cc(Nc2ccc(NCCc3c[nH]c4ccccc34)cc2)ccn1` (stereo not drawn) [Compound 104], the IC50 was 3160 nM.

On to `O=C(c1ccccc1)c1cc(Nc2ccc(NCCc3c[nH]c4ccccc34)cc2)ccn1` [Compound 56], for which the IC50 is 2510 nM.

`O=C(C(Cc1c[nH]c2ccccc12)Nc1ccc(Nc2ccncc2)cc1)N(CCO)Cc1ccccc1` (stereo not drawn) [Compound 214]: the IC50 is above 10000 nM.

`c1ccc2c(CCNc3ccc(N(c4ccncc4)c4ccncc4)cc3)c[nH]c2c1` [Compound 228]: the IC50 was 7940 nM.

Regarding `c1ccc2c(CCCN(CCCc3c[nH]c4ccccc34)Cc3ccc(Nc4ccncc4)cc3)c[nH]c2c1` [Compound 73], the IC50 was 501 nM.

Take `O=C(OCc1ccccc1)N1CCN(Cc2cc(Nc3ccc(NCCc4c[nH]c5ccccc45)cc3)ccn2)CC1` [Compound 90]: the IC50 is 2510 nM.

As for `COc1cccc2c(CCNc3ccc(Nc4ccncc4)cc3)c[nH]c12` [Compound 188], the IC50 was 794 nM.

On to `O=C(C(Cc1c[nH]c2ccccc12)Nc1ccc(Nc2ccncc2)cc1)N1CCCC(CO)C1` (stereo not drawn) [Compound 218], for which the IC50 is above 10000 nM.

Regarding `Cc1cc(Nc2ccc(NCCc3c[nH]c4ccccc34)cc2)ccn1` [Compound 46], the IC50 is 251 nM.

For the compound `Cc1cc(Nc2ccc(NCCc3c[nH]c4ccccc34)cc2)c2cc(CO)ccc2n1` [Compound 19], the IC50 was 200 nM.

For `CC(NCCCCO)c1cc(Nc2ccc(NCCc3c[nH]c4ccccc34)cc2)ccn1` (stereo not drawn) [Compound 100], the IC50 was 3980 nM.

Consider `COc1ccc2c(CCNc3ccc(Nc4ccnc5c4CCC5O)cc3)c[nH]c2c1` (stereo not drawn) [Compound 196], for which the IC50 is 200 nM.

On to `Cc1cc(Nc2ccncc2)ccc1NCCc1c[nH]c2ccccc12` [Compound 47], for which the IC50 is 158 nM.

In the case of `O=C(NCCNCc1cc(Nc2ccc(NCCc3c[nH]c4ccccc34)cc2)ccn1)OCc1ccccc1` [Compound 92], the IC50 was 3160 nM.

Regarding `c1ccc2c(Nc3ccc(NCCc4c[nH]c5ccccc45)cc3)ccnc2c1` [Compound 1], the IC50 was below 10 nM.

Regarding `c1ccc2c(CCNc3ccc(Nc4ccnc(CN5CCOCC5)c4)cc3)c[nH]c2c1` [Compound 159], the IC50 was 3160 nM.

`CCOC(=O)/C=C/c1cnccc1Nc1ccc(NCCc2c[nH]c3ccccc23)cc1` [Compound 126]: the IC50 was above 10000 nM.

Consider `Cc1ccc2c(CCNc3ccc(Nc4ccncc4)cc3)c[nH]c2c1` [Compound 183], for which the IC50 is 501 nM.

Consider `CN1CCN(Cc2cc(Nc3ccc(NCCc4c[nH]c5ccccc45)cc3)ccn2)CC1` [Compound 160], for which the IC50 is 398 nM.

In the case of `c1cncc(Nc2ccc(NCc3c[nH]c4ccccc34)cc2)c1` [Compound 78], the IC50 was 10000 nM.

Consider `c1ccc(COc2cc(Nc3ccnc4ccccc34)ccc2NCCc2c[nH]c3ccccc23)cc1` [Compound 17], for which the IC50 is 631 nM.

As for `NCc1cc(Nc2ccc(NCCc3c[nH]c4ccccc34)cc2)ccn1` [Compound 55], the IC50 is 501 nM.

On to `c1ccc2c(CCNCCc3ccc(Nc4ccncc4)cc3)c[nH]c2c1` [Compound 75], for which the IC50 was 3160 nM.

As to `CCC(O)(CC)c1cc(Nc2ccc(NCCc3c[nH]c4ccccc34)cc2)ccn1` [Compound 128], the IC50 was 3160 nM.

Turning to `COC(=O)c1ccc2nc(C)cc(Nc3ccc(NCCc4c[nH]c5ccccc45)cc3)c2c1` [Compound 15], the IC50 was 50.1 nM.
